Assays:
intracranial pressure [1] = experiment: Effect of i.v. injection of test compounds on intracranial pressure in rats; format: in vivo, rat (male SD-strain); details: rat, 0 minute = 100
Source text: Male SD-strain rats weighing 500 to 800 g (each group consisting of 5 rats) were anesthetized with urethane. […] Intracranial pressure (i.e., cerebrospinal fluid pressure in the cisterna magna) was continuously monitored via a cannula inserted in the cisterna magna. The cannula was connected to a transducer, and recordings were made on graph paper.

[2] = Therapeutic index (ratio of LD50 to minimum effective dose); format: in vivo; details: orally or intravenously
Source text: Unlike the hypertonic solutions of glycerol or mannitol, the therapeutic effect of the propanol derivative (I) of the present invention is not ascribable to the cerebral dehydrating effect and, therefore, said derivative (I) can be used either orally or parenterally. The propanol derivative (I) may also be used for the treatment of prophylaxis of increased intracranial pressure during and after brain surgical operation. Moreover, the propanol derivative (I) may be used for improving impaired consciousness, nervous disturbance and subjective symptoms (e.g., headache, nausea, vomiting) which are attributed to the cerebral diseases such as those mentioned hereinbefore. Further, whereas it is known that cerebral edema induces a rise in intracranial pressure and increased intracranial pressure serves to cause a build-up of edema which in turn impairs cerebral circulation, the propanol derivative (I) can interrupt this vicious cycle of cerebral diseases because of its potent intracranial pressure-lowering effect and its ability to ameliorate the cerebral circulatory impairment. The toxicity of the propanol derivative (I) of the present invention is low.

intracranial pressure [3] = experiment: Effect of p.o. administration of test compounds on intracranial pressure in rats; format: in vivo, rat (male SD-strain); details: rat, 8 mg/kg, 240 minutes, 0 minute = 100
Experimental: Male SD-strain rats weighing 500 to 800 g (each group consisting of 5 rats) were fasted for about 20 hours, and anesthetized with urethane. A suspension of a test compound in aqueous 0.5 w/v % carboxymethyl-cellulosewas administered orally to the rats. Then, the effect of the compound on the intracranial pressure was estimated in the same manner as described in Example 1.
Compound 4 (free base) listed in Example 1 was used in this experiment.

Acute toxicity = details: in vivo, mouse, observed for a week
Experimental: The 50% lethal dose (LD50) of the test compound was calculated according to the Weil's method from the number of mice died a week after the administration.

intracranial pressure [4] = experiment: Effect of i.v. injection of test compounds on intracranial pressure in beagle dogs; format: in vivo, beagle dog (male); details: beagle dog, 1.0 mg/kg, 0 minute = 100
Experimental: A solution of a test compound in an aqueous 5 w/v % mannitol solution was infused via the saphenous vein of the beagle dogs at a rate of 0.1 ml/kg/minute for 40 minutes.

[5] = test system: increased intracranial pressure; experiment: Effect of i.v. injection on increased intracranial pressure (autologous blood injected into the brain) in rats; format: in vivo, rat (male SD-strain); details: rat, 0 minute = 100
Experimental: Male SD-strain rats weighing 500 to 800 g (each group consisting of 5 rats) were anesthetized with urethane. 0.03 ml of autologous blood were injected into the brain of the rats to induce an increase in intracranial pressure. The level of increased intracranial pressure in the rats was about twice as high as its initial level 120 to 180 minutes after injection of autologous blood and said increased intracranial pressure was maintained at an approximately same level thereafter. 180 minutes after injection of autologous blood, a solution of a test compound in an aqueous 5 w/v % mannitol solution was infused via the femoral vein of the rats at a rate of 0.2 ml/kg/minute for 40 minutes. Then, the effect of the test compound on the intracranial pressure was calculated according to the following formula: [formula]
Compound No. 4 listed in Example 1 was used in this experiment.

[6] = test system: common carotid blood flow; experiment: Effect of test compounds on common carotid blood flow in cats; format: in vivo; details: cat, right thyroid artery, 30 seconds after administration, baseline 24.1 ± 0.9 ml/minute
Experimental: A solution of a test compound in an aqueous 10 w/v % maltose solution was injected into the right thyroid artery of the cats. The common carotid artery blood flow was continuously monitored via the flow probe set at the common carotid artery. The flow probe was connected to an electromagnetic flow meter, and recordings were made on graph paper. The effect of the test compound on the common carotid blood flow was estimated 30 seconds after administration of the test compound.

[7] = test system: increased intracranial pressure; experiment: Effect of i.v. injection on increased intracranial pressure (autologous blood injected into the lateral ventricle) in rabbits; format: in vivo, rabbit (male); details: rabbit, 0 minute = 100
Experimental: Male rabbits weighing 2.8 to 3.2 kg (each group consisting of 6 rabbits) were anethetized with urethane. 0.1 to 0.2 ml of autologous blood were injected into the lateral ventricle of the rabbits to induce a rise in intracranial pressure. The level of intracranial pressure was about 2.3 times as high as its initial level 150 to 180 minutes after injection of autologous blood. 180 minutes after injection of autologous blood, a solution of a test compound in an aqueous 10 w/v % maltose solution was administered intravenously to the rabbits at a rate of 0.1 ml/kg/minute for 20 minutes. Then, the effect of the test compound on the intracranial pressure was calculated in the same manner as described in Example 2. [The initial intracranial pressure (i.e., the normal intracranial pressure measured before injection of autologous blood) was 75±2.6 mm H2 O, and the intracranial pressure measured before administration of test compound was 176±16 mm H2 O.]
Compound 4 listed in Example 1 was used in this experiment.

SMILES: COc1cc(NC(C)=O)ccc1OCC(O)CN1CCN(c2ccccc2)CC1 (centres unmarked) [Compound 1, 1-(4-acetamido-2-methoxyphenoxy)-3-(4-phenylpiperazino)-2-propanol]
- Changes in intracranial pressure (intracranial pressure [1]; 1.0 mg/kg, 40 minutes): 81.4%
- Changes in intracranial pressure (intracranial pressure [1]; 1.0 mg/kg, 60 minutes): 85.5%
- Changes in intracranial pressure (intracranial pressure [1]; 1.0 mg/kg, 120 minutes): 91.7%
- Changes in intracranial pressure (intracranial pressure [1]; 1.0 mg/kg, 180 minutes): 92.8%

SMILES: COc1cc(NC(C)=O)ccc1OCC(O)CN1CCN(c2ccccc2C)CC1 (centres unmarked) [Compound 2, 1-(4-acetamido-2-methoxyphenoxy)-3-[4-(2-methylphenyl)piperazino]-2-propanol]
- Changes in intracranial pressure (intracranial pressure [1]; 1.0 mg/kg, 40 minutes): 90.5%
- Changes in intracranial pressure (intracranial pressure [1]; 1.0 mg/kg, 60 minutes): 90.7%
- Changes in intracranial pressure (intracranial pressure [1]; 1.0 mg/kg, 120 minutes): 90.1%
- Changes in intracranial pressure (intracranial pressure [1]; 1.0 mg/kg, 180 minutes): 91.5%

SMILES: COc1cc(NC(C)=O)ccc1OCC(O)CN1CCN(c2ccccc2Cl)CC1 (centres unmarked) [Compound 3, 1-(4-acetamido-2-methoxyphenoxy)-3-[4-(2-chlorophenyl)piperazino]-2-propanol]
- Changes in intracranial pressure (intracranial pressure [1]; 1.0 mg/kg, 40 minutes): 92.4%
- Changes in intracranial pressure (intracranial pressure [1]; 1.0 mg/kg, 60 minutes): 87.5%
- Changes in intracranial pressure (intracranial pressure [1]; 1.0 mg/kg, 120 minutes): 85.3%
- Changes in intracranial pressure (intracranial pressure [1]; 1.0 mg/kg, 180 minutes): 85.0%

SMILES: COc1cc(NC(C)=O)ccc1OCC(O)CN1CCN(c2cccc(F)c2)CC1 (centres unmarked) [Compound 4 (free base), 1-(4-acetamido-2-methoxyphenoxy)-3-[4-(3-fluorophenyl)piperazino]-2-propanol]
- therapeutic index (50% lethal dose / minimum effective dose) [2]: not less than 400
- Changes in intracranial pressure (intracranial pressure [3]): 75.6%
- LD50 at 168 h (Acute toxicity; po): 1550 mg/kg

SMILES: COc1cc(NC(C)=O)ccc1OCC(O)CN1CCN(c2cccc(F)c2)CC1.Cl (centres unmarked) [Compound 4, 1-(4-acetamido-2-methoxyphenoxy)-3-[4-(3-fluorophenyl)piperazino]-2-propanol hydrochloride]
- Changes in intracranial pressure (intracranial pressure [1]; 0.5 mg/kg, 40 minutes): 84.3%
- Changes in intracranial pressure (intracranial pressure [1]; 0.5 mg/kg, 60 minutes): 80.5%
- Changes in intracranial pressure (intracranial pressure [1]; 0.5 mg/kg, 120 minutes): 86.5%
- Changes in intracranial pressure (intracranial pressure [1]; 0.5 mg/kg, 180 minutes): 86.7%
- Changes in intracranial pressure (intracranial pressure [1]; 1.0 mg/kg, 40 minutes): 82.6%
- Changes in intracranial pressure (intracranial pressure [1]; 1.0 mg/kg, 60 minutes): 78.1%
- Changes in intracranial pressure (intracranial pressure [1]; 1.0 mg/kg, 120 minutes): 82.2%
- Changes in intracranial pressure (intracranial pressure [1]; 1.0 mg/kg, 180 minutes): 85.2%
- Changes in intracranial pressure (intracranial pressure [1]; 2.0 mg/kg, 40 minutes): 81.5%
- Changes in intracranial pressure (intracranial pressure [1]; 2.0 mg/kg, 60 minutes): 72.5%
- Changes in intracranial pressure (intracranial pressure [1]; 2.0 mg/kg, 120 minutes): 74.6%
- Changes in intracranial pressure (intracranial pressure [1]; 2.0 mg/kg, 180 minutes): 78.9%
- Changes in intracranial pressure (intracranial pressure [4]; 40 minutes): 80.3%
- Changes in intracranial pressure (intracranial pressure [4]; 60 minutes): 75.6%
- Changes in intracranial pressure (intracranial pressure [4]; 120 minutes): 82.5%
- Changes in intracranial pressure (intracranial pressure [4]; 180 minutes): 83.1%
- Changes in intracranial pressure ([5]; 0.5 mg/kg, 40 minutes): 68.0%
- Changes in intracranial pressure ([5]; 0.5 mg/kg, 60 minutes): 65.4%
- Changes in intracranial pressure ([5]; 0.5 mg/kg, 120 minutes): 74.6%
- Changes in intracranial pressure ([5]; 0.5 mg/kg, 180 minutes): 76.0%
- Changes in intracranial pressure ([5]; 1.0 mg/kg, 40 minutes): 56.7%
- Changes in intracranial pressure ([5]; 1.0 mg/kg, 60 minutes): 60.9%
- Changes in intracranial pressure ([5]; 1.0 mg/kg, 120 minutes): 59.2%
- Changes in intracranial pressure ([5]; 1.0 mg/kg, 180 minutes): 60.6%
- Increase in common carotid blood flow ([6]; 1 μg/kg): 3.5 ± 0.8 Δml/minute
- Increase in common carotid blood flow ([6]; 5 μg/kg): 6.1 ± 0.6 Δml/minute
- Increase in common carotid blood flow ([6]; 10 μg/kg): 8.8 ± 1.3 Δml/minute
- LD50 at 168 h (Acute toxicity; iv): 280 mg/kg
- Changes in intracranial pressure ([7]; 1 mg/kg, 20 minutes): 96.4%
- Changes in intracranial pressure ([7]; 1 mg/kg, 60 minutes): 91.7%
- Changes in intracranial pressure ([7]; 1 mg/kg, 120 minutes): 82.1%
- Changes in intracranial pressure ([7]; 1 mg/kg, 180 minutes): 94.0%
- Changes in intracranial pressure ([7]; 1 mg/kg, 240 minutes): 91.7%
- Changes in intracranial pressure ([7]; 1 mg/kg, 300 minutes): 91.7%
- Changes in intracranial pressure ([7]; 2 mg/kg, 20 minutes): 89.5%
- Changes in intracranial pressure ([7]; 2 mg/kg, 60 minutes): 77.1%
- Changes in intracranial pressure ([7]; 2 mg/kg, 120 minutes): 68.6%
- Changes in intracranial pressure ([7]; 2 mg/kg, 180 minutes): 63.8%
- Changes in intracranial pressure ([7]; 2 mg/kg, 240 minutes): 65.7%
- Changes in intracranial pressure ([7]; 2 mg/kg, 300 minutes): 63.8%

SMILES: COc1cc(NC(C)=O)ccc1OCC(O)CN1CCN(c2ccccc2F)CC1 (centres unmarked) [Compound 5, 1-(4-acetamido-2-methoxyphenoxy)-3-[4-(2-fluorophenyl)piperazino]-2-propanol]
- Changes in intracranial pressure (intracranial pressure [1]; 1.0 mg/kg, 40 minutes): 84.0%
- Changes in intracranial pressure (intracranial pressure [1]; 1.0 mg/kg, 60 minutes): 84.0%
- Changes in intracranial pressure (intracranial pressure [1]; 1.0 mg/kg, 120 minutes): 81.3%
- Changes in intracranial pressure (intracranial pressure [1]; 1.0 mg/kg, 180 minutes): 87.5%

SMILES: COc1cc(NC(C)=O)ccc1OCC(O)CN1CCN(c2cccc(C(F)(F)F)c2)CC1 (centres unmarked) [Compound 6, 1-(4-acetamido-2-methoxyphenoxy)-3-[4-(3-trifluoromethylphenyl)piperazino]-2-propanol]
- Changes in intracranial pressure (intracranial pressure [1]; 1.0 mg/kg, 40 minutes): 97.0%
- Changes in intracranial pressure (intracranial pressure [1]; 1.0 mg/kg, 60 minutes): 95.0%
- Changes in intracranial pressure (intracranial pressure [1]; 1.0 mg/kg, 120 minutes): 90.5%
- Changes in intracranial pressure (intracranial pressure [1]; 1.0 mg/kg, 180 minutes): 92.8%

SMILES: COc1ccc(Cc2nccc3cc(OC)c(OC)cc23)cc1OC [Papaverine, reference compound]
- Increase in common carotid blood flow ([6]; 10 μg/kg): 2.6 ± 0.2 Δml/minute
- Increase in common carotid blood flow ([6]; 25 μg/kg): 5.4 ± 0.6 Δml/minute

From US4307097A, “Method of reducing increased intracranial pressure” (Tanabe Seiyaku Co., Ltd., priority 1979, dated 1981)
